In the supplement of paper PMC13380429:

Legend:
Settings in all cases: 72 h
[1] = tested on: HepG2; assay: cell viability relative to DMSO; higher = less toxic
[2] = tested on: Vero E6; assay: as above
[3] = tested on: Caco-2; assay: as above
[4] = tested on: U2OS; assay: as above
[5] = tested on: Calu-3; assay: as above
[6] = tested on: HepG2; assay: relative viability EC50 (midpoint between 100% and the lowest measured viability); higher = less toxic
[7] = tested on: Vero E6; assay: as above
[8] = tested on: Caco-2; assay: as above
[9] = tested on: U2OS; assay: as above
[10] = tested on: Calu-3; assay: as above
[11] = tested on: HepG2; assay: drug sensitivity score (DSS) for viability; higher = more toxic; extreme values may be limits of the assay
[12] = tested on: Vero E6; assay: as above
[13] = tested on: Caco-2; assay: as above
[14] = tested on: U2OS; assay: as above
[15] = tested on: Calu-3; assay: as above

Row | Compound | cell viability ([1]; 1 nM) [%] | cell viability ([1]; 10 nM) [%] | cell viability ([1]; 100 nM) [%] | cell viability ([1]; 1000 nM) [%] | cell viability ([1]; 10000 nM) [%] | cell viability ([2]; 1 nM) [%] | cell viability ([2]; 10 nM) [%] | cell viability ([2]; 100 nM) [%] | cell viability ([2]; 1000 nM) [%] | cell viability ([2]; 10000 nM) [%] | cell viability ([3]; 1 nM) [%] | cell viability ([3]; 10 nM) [%] | cell viability ([3]; 100 nM) [%] | cell viability ([3]; 1000 nM) [%] | cell viability ([3]; 10000 nM) [%] | cell viability ([4]; 1 nM) [%] | cell viability ([4]; 10 nM) [%] | cell viability ([4]; 100 nM) [%] | cell viability ([4]; 1000 nM) [%] | cell viability ([4]; 10000 nM) [%] | cell viability ([5]; 1 nM) [%] | cell viability ([5]; 10 nM) [%] | cell viability ([5]; 100 nM) [%] | cell viability ([5]; 1000 nM) [%] | cell viability ([5]; 10000 nM) [%] | relative viability EC50 [6] [µM] | relative viability EC50 [7] [µM] | relative viability EC50 [8] [µM] | relative viability EC50 [9] [µM] | relative viability EC50 [10] [µM] | drug sensitivity score [11] | drug sensitivity score [12] | drug sensitivity score [13] | drug sensitivity score [14] | drug sensitivity score [15]
1 | Cc1c(N)c(=O)n(-c2ccccc2)n1C [ampyrone] | 96.5 | 110 | 105 | 111 | 106 | 101 | 104 | 99.2 | 95.4 | 90.5 | 103 | 92 | 100 | 96.7 | 95 | 97.6 | 94.3 | 100 | 95.8 | 102 | 138 | 99.9 | 98.6 | 96.4 | 98.6 | > 10 | > 10 | > 10 | > 10 | > 10 | 0 | 0 | 0 | 0 | 0
2 | CCCC(CCC)C(=O)O[C@H]1C[C@H]2CC[C@@H](C1)[N+]2(C)C [anisotropine] | 102 | 96.9 | 99 | 90.2 | 102 | 100 | 96.1 | 97.8 | 96.6 | 100 | 94.8 | 95.2 | 86.6 | 97.8 | 99.1 | 101 | 99 | 90.3 | 99.9 | 90.7 | 94.7 | 107 | 93.9 | 97.6 | 92 | > 10 | > 10 | > 10 | > 10 | > 10 | 0 | 0 | 0 | 0 | 0
3 | N#CC1(c2ccc(NC(=O)c3cccnc3NCc3ccncc3)cc2)CCCC1 [apatinib] | 103 | 105 | 107 | 89.5 | 77.8 | 96.5 | 92 | 98.3 | 97.1 | 109 | 92.3 | 94.1 | 93.5 | 101 | 94.1 | 97.4 | 104 | 98 | 99.2 | 99.6 | 92.9 | 94.5 | 104 | 97.5 | 104 | > 10 | > 10 | > 10 | > 10 | > 10 | 1.9 | 0 | 0 | 0 | 0
4 | CC[C@@H]1/C=C(\C)C[C@H](C)C[C@H](OC)[C@H]2O[C@@](O)(C(=O)C(=O)N3CCCC[C@H]3C(=O)O[C@H](/C(C)=C/[C@@H]3CC[C@@H](O)[C@H](OC)C3)[C@H](C)[C@@H](O)CC1=O)[C@H](C)C[C@@H]2OC [ascomycin] | 124 | 109 | 112 | 96 | 104 | 107 | 100 | 98.1 | 93.5 | 102 | 117 | 97.8 | 95 | 100 | 84.5 | 96 | 104 | 97.8 | 98.4 | 95.2 | 98.3 | 98.9 | 90.8 | 107 | 107 | > 10 | > 10 | > 10 | > 10 | > 10 | 0 | 0 | 0.2 | 0 | 0
5 | CCCCCCCCCCCCCCCCCCN(CCCCCCCCCCCCCCCCCC)CCCN(CCO)CCO [avridine] | 109 | 98.1 | 98 | 106 | 108 | 104 | 101 | 106 | 98.5 | 102 | 106 | 97 | 90.4 | 105 | 146 | 95.7 | 101 | 98.9 | 104 | 100 | 91.5 | 101 | 101 | 95.7 | 108 | > 10 | > 10 | > 10 | > 10 | > 10 | 0 | 0 | 0 | 0 | 0
6 | CCC1(C)CC(=O)NC(=O)C1 [bemegride] | 102 | 101 | 108 | 90.8 | 112 | 98.2 | 102 | 94.6 | 99.1 | 112 | 102 | 90.1 | 90.8 | 94.8 | 98.8 | 100 | 96.6 | 98.6 | 99.8 | 102 | 92.2 | 114 | 101 | 105 | 98.1 | > 10 | > 10 | > 10 | > 10 | > 10 | 0 | 0 | 0 | 0 | 0
7 | O=C(O)Cc1ccc(OCc2ccccc2)c(Cl)c1 [benzofenac] | 98.5 | 92.7 | 94.3 | 87.1 | 93.8 | 103 | 105 | 106 | 99.6 | 96.1 | 96.9 | 114 | 112 | 104 | 107 | 98.2 | 98.2 | 99.3 | 100 | 94.4 | 97.6 | 109 | 98.9 | 111 | 93.4 | > 10 | > 10 | > 10 | > 10 | > 10 | 0 | 0 | 0 | 0 | 0
8 | O=C(OOC(=O)c1ccccc1)c1ccccc1 [benzoyl-peroxide] | 92.1 | 104 | 99.1 | 110 | 107 | 95.6 | 98.8 | 92 | 95 | 105 | 102 | 87.9 | 96.6 | 91.2 | 99.4 | 98 | 95.2 | 99.3 | 97.6 | 94.1 | 99 | 95.8 | 103 | 99 | 103 | > 10 | > 10 | > 10 | > 10 | > 10 | 0 | 0 | 0 | 0 | 0
9 | CCCCCCCCCCCCCCCC[N+](C)(C)Cc1ccccc1 [benzyldimethylhexadecylammonium] | 113 | 101 | 102 | 93.7 | 30.6 | 99 | 94.6 | 100 | 94.5 | 92.8 | 93.9 | 96.1 | 91.9 | 89.4 | 18 | 99.6 | 101 | 102 | 102 | 14.1 | 94.9 | 105 | 105 | 102 | 41.2 | 2.41 | > 10 | 2.12 | 3.28 | 3.39 | 4.8 | 0 | 6.3 | 4.6 | 3
10 | CN(C)CCC(c1ccc(Br)cc1)c1ccccn1 (stereo not given) [brompheniramine] | 99.3 | 98.5 | 96.4 | 93.7 | 88.1 | 98.8 | 102 | 100 | 105 | 94.9 | 92.3 | 75.3 | 96.6 | 101 | 96.2 | 106 | 101 | 102 | 97.6 | 102 | 94.9 | 99.5 | 96.6 | 94.5 | 88.9 | > 10 | > 10 | > 10 | > 10 | > 10 | 0 | 0 | 0 | 0 | 0
11 | O=C(O)C1(C(=O)O)CCC1.[NH2-].[NH2-].[Pt+2] [carboplatin] | 106 | 98.7 | 99.5 | 90.7 | 103 | 99.6 | 92.5 | 103 | 98.4 | 109 | 97.8 | 102 | 85.4 | 94.9 | 100 | 94.3 | 95.9 | 93.2 | 100 | 108 | 90.8 | 98.8 | 93.6 | 90.7 | 106 | > 10 | > 10 | > 10 | > 10 | > 10 | 0 | 0 | 0 | 0 | 0
12 | CCC(C)(Oc1ccc(C2(c3ccc(OC(C)(CC)C(=O)O)cc3)CCCCC2)cc1)C(=O)O (stereo not given) [clinofibrate] | 93.9 | 106 | 92.6 | 120 | 108 | 96.4 | 101 | 96 | 99.2 | 107 | 103 | 98.2 | 99 | 105 | 104 | 96.9 | 98.3 | 102 | 95.6 | 94.9 | 96.1 | 93.7 | 99.9 | 102 | 98.9 | > 10 | > 10 | > 10 | > 10 | > 10 | 0 | 0 | 0 | 0 | 0
13 | COC(=O)[C@H](c1ccccc1Cl)N1CCc2sccc2C1 [clopidogrel] | 97.7 | 97.7 | 98.4 | 112 | 101 | 105 | 86.7 | 104 | 104 | 108 | 91.9 | 91.8 | 95.1 | 95 | 88.2 | 94.8 | 99.3 | 95.8 | 102 | 97.6 | 89.9 | 104 | 96.9 | 96.7 | 101 | > 10 | > 10 | > 10 | > 10 | > 10 | 0 | 0 | 0 | 0 | 0
